Values of other authors, collected in PubChem BioAssay AID1259409 (Chemical Carcinogenesis Research Information System (CCRIS), 2018).

System: rodent chemically induced tumor inhibition, incidence and multiplicity
Assay: CCRIS tumor inhibitor studies
Conditions: Dose [Inhibitor]: 0, Species: MOUSE, Strain/Sex: TRANSGENIC/MALE, FEMALE, Promoter: NONE USED

## N[C@@H](Cc1ccc(O)cn1)C(=O)O
Carcinogen: 7,12-DIMETHYLBENZ[A]ANTHRACENE, 57-97-6, 2 MG IN 50% ETHANOL 1/3 D BEGINNING 2 D POST CARCINOGEN TREATMENT (STUDY DURATION: 30 WK), Route [Inhibitor]: DERMAL, Target Tissue: Type of Lesion: SKIN: PAPILLOMA, Dose [Carcinogen]: 5 MG/KG/BW ONCE
  tumour outcome (control, treated, inhibition, significance): 100%, 45%, 55%, not calculated
Carcinogen: METHYLNITROSOUREA, 684-93-5, 2 MG/MOUSE 1/2 D FOR 12 WK BEGINNING 1 D POST CARCINOGEN TREATMENT (STUDY DURATION: 12 WK), Route [Inhibitor]: INTRAPERITONEAL, Target Tissue: Type of Lesion: FORESTOMACH: PAPILLOMA, Dose [Carcinogen]: 50 MG/KG IN 10 MILLIMOLAR CITRATE BUFFER
  tumour outcome (control, treated, inhibition, significance): 100%, 0%, 100%, not calculated
